# Laboratory results from publication PMC12064818, “A general assay platform to study protein pharmacology using ligand-dependent structural dynamics” (Nature Communications, 2025).
# Legend:
# [1] = molecular target: FLuc-C-NLuc (firefly luciferase) (Photinus pyralis, UniProt P08659, form not given/L550V); assay: SDR assay, FLuc-C-NLuc; conditions: SDR, Log [PTC124]
# [2] = molecular target: T1, FLuc-C-HiBiT (firefly luciferase) (Photinus pyralis, UniProt P08659, form not given/L550V); assay: SDR assay, FLuc-C-HiBiT; conditions: for SDR assay statistics Ave RLU / SDR assay statistics S:B / SDR assay statistics S:N / SDR assay statistics Z’: 32.8 µM ligand; for 10 nM FLuc-C-HiBiT + 10 mM ATP, Mean / 10 nM FLuc-C-HiBiT No ATP, Mean: Log [PTC124]
# [3] = molecular target: T1, FLuc-C-HiBiT (firefly luciferase); assay: Firefly luciferase (FLuc) enzymatic luminescence assay, FLuc-C-HiBiT; type: biochemical; conditions: for 10 nM FLuc-C-HiBiT Enz, Mean: Log [PTC124]
# Procedure, shortened: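 Compounds were preincubated 30–60 min at room temperature in the dark with 1–10 nM fusion enzyme in PBS pH 7.4. D-luciferin was then added (10 µM final) for 5 min before luminescence was imaged. Inhibition was normalized to no-enzyme control (100%) and DMSO neutral control.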
# [4] = FLuc-C-HiBiT (10 nM) + 10 mM ATP
# [5] = FLuc-C-HiBiT (10 nM) + 10 mM ATP, 32.8 µM ligand
# T1 sequence (P08659 2-550 L550V, form open): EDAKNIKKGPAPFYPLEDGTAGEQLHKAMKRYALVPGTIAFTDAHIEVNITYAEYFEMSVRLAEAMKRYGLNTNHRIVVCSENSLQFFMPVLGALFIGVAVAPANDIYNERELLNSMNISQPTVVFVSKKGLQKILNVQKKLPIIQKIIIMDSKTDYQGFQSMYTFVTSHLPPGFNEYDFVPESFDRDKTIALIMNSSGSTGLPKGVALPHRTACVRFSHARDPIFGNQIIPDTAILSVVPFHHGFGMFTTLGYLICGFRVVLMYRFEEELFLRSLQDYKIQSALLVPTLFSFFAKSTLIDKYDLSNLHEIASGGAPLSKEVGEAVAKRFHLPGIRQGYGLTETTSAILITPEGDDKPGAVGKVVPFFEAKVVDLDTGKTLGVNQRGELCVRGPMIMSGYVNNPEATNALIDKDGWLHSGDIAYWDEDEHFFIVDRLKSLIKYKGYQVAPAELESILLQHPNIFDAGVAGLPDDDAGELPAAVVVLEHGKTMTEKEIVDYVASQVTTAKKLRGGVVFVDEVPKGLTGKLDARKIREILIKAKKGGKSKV
# FLuc-C-NLuc (firefly luciferase), sequence (P08659 2-550 L550V, form open): as above
smiles,measurement,setting,value
"O=C(O)c1cccc(-c2noc(-c3ccccc3F)n2)c1 [PTC124, reference compound]","1 nM FLuc-C-NLuc + 10 mM ATP, Mean",[1]; M -10.69,7360.6 RLU
same,"1 nM FLuc-C-NLuc No ATP, Mean",[1]; M -10.69,6890.0 RLU
same,"1 nM FLuc-C-NLuc + 10 mM ATP, Mean",[1]; M -11.16,7002.6 RLU
same,"1 nM FLuc-C-NLuc No ATP, Mean",[1]; M -11.16,6849.1 RLU
same,"1 nM FLuc-C-NLuc + 10 mM ATP, Mean",[1]; M -11.64,6913.7 RLU
same,"1 nM FLuc-C-NLuc No ATP, Mean",[1]; M -11.64,6857.9 RLU
same,"pSDR50, FLuc-C-HiBiT (10 nM)",[2]; 0 μM ATP,5.73 ± 0.13
same,"pSDR50, FLuc-C-HiBiT (10 nM)",[2]; 10 μM ATP,8.30 ± 0.07
same,SDR assay statistics Ave RLU,[2]; [4],11178.8 RLU
same,SDR assay statistics S:B,[2]; [4],6.5
same,SDR assay statistics S:N,[2]; [4],12.2
same,SDR assay statistics Z’,[2]; [4],0.693
same,SDR assay statistics Ave RLU,[2]; FLuc-C-HiBiT (10 nM) No ATP,6229.4 RLU
same,SDR assay statistics S:B,[2]; FLuc-C-HiBiT (10 nM) No ATP,5.1
same,SDR assay statistics S:N,[2]; FLuc-C-HiBiT (10 nM) No ATP,7.5
same,SDR assay statistics Z’,[2]; FLuc-C-HiBiT (10 nM) No ATP,0.503
same,"10 nM FLuc-C-HiBiT + 10 mM ATP, Mean",[2]; M (SDR) -4.48,21802.2 RLU
same,"10 nM FLuc-C-HiBiT No ATP, Mean",[2]; M (SDR) -4.48,17458.7 RLU
same,"10 nM FLuc-C-HiBiT + 10 mM ATP, Mean",[2]; M (SDR) -4.96,22284.7 RLU
same,"10 nM FLuc-C-HiBiT No ATP, Mean",[2]; M (SDR) -4.96,16769.9 RLU
same,"10 nM FLuc-C-HiBiT + 10 mM ATP, Mean",[2]; M (SDR) -5.44,22342.5 RLU
same,"10 nM FLuc-C-HiBiT No ATP, Mean",[2]; M (SDR) -5.44,16051.7 RLU
same,"10 nM FLuc-C-HiBiT + 10 mM ATP, Mean",[2]; M (SDR) -5.91,22563.9 RLU
same,"10 nM FLuc-C-HiBiT No ATP, Mean",[2]; M (SDR) -5.91,15076.6 RLU
same,"10 nM FLuc-C-HiBiT + 10 mM ATP, Mean",[2]; M (SDR) -6.39,22424.3 RLU
same,"10 nM FLuc-C-HiBiT No ATP, Mean",[2]; M (SDR) -6.39,13877.2 RLU
same,"10 nM FLuc-C-HiBiT + 10 mM ATP, Mean",[2]; M (SDR) -6.87,22543.4 RLU
same,"10 nM FLuc-C-HiBiT No ATP, Mean",[2]; M (SDR) -6.87,13237.3 RLU
same,"10 nM FLuc-C-HiBiT + 10 mM ATP, Mean",[2]; M (SDR) -7.35,21860.7 RLU
same,"10 nM FLuc-C-HiBiT No ATP, Mean",[2]; M (SDR) -7.35,13241.3 RLU
same,"10 nM FLuc-C-HiBiT + 10 mM ATP, Mean",[2]; M (SDR) -7.82,20621.1 RLU
same,"10 nM FLuc-C-HiBiT No ATP, Mean",[2]; M (SDR) -7.82,13270.4 RLU
same,"10 nM FLuc-C-HiBiT + 10 mM ATP, Mean",[2]; M (SDR) -8.30,18655.3 RLU
same,"10 nM FLuc-C-HiBiT No ATP, Mean",[2]; M (SDR) -8.30,13170.2 RLU
same,"10 nM FLuc-C-HiBiT + 10 mM ATP, Mean",[2]; M (SDR) -8.78,16941.8 RLU
same,"10 nM FLuc-C-HiBiT No ATP, Mean",[2]; M (SDR) -8.78,13237.7 RLU
same,"10 nM FLuc-C-HiBiT + 10 mM ATP, Mean",[2]; M (SDR) -9.25,15920.6 RLU
same,"10 nM FLuc-C-HiBiT No ATP, Mean",[2]; M (SDR) -9.25,13300.5 RLU
same,"10 nM FLuc-C-HiBiT + 10 mM ATP, Mean",[2]; M (SDR) -9.73,15410.2 RLU
same,"10 nM FLuc-C-HiBiT No ATP, Mean",[2]; M (SDR) -9.73,13254.2 RLU
same,"10 nM FLuc-C-HiBiT + 10 mM ATP, Mean",[2]; M (SDR) -10.21,15302.7 RLU
same,"10 nM FLuc-C-HiBiT No ATP, Mean",[2]; M (SDR) -10.21,12964.2 RLU
same,"10 nM FLuc-C-HiBiT + 10 mM ATP, Mean",[2]; M (SDR) -10.69,15229.5 RLU
same,"10 nM FLuc-C-HiBiT No ATP, Mean",[2]; M (SDR) -10.69,13111.1 RLU
same,"10 nM FLuc-C-HiBiT + 10 mM ATP, Mean",[2]; M (SDR) -11.16,15146.3 RLU
same,"10 nM FLuc-C-HiBiT No ATP, Mean",[2]; M (SDR) -11.16,13296.1 RLU
same,"10 nM FLuc-C-HiBiT + 10 mM ATP, Mean",[2]; M (SDR) -11.64,14993.9 RLU
same,"10 nM FLuc-C-HiBiT No ATP, Mean",[2]; M (SDR) -11.64,13163.6 RLU
same,"pIC50, FLuc-C-HiBiT (10 nM)",[3]; 10 μM ATP,7.95 ± 0.02
same,Standard assay statistics Ave RLU,[3]; [5],48.5 RLU
same,Standard assay statistics S:B,[3]; [5],0.0352
same,Standard assay statistics S:N,[3]; [5],-14.1
same,Standard assay statistics Z’,[3]; [5],0.761
same,"10 nM FLuc-C-HiBiT Enz, Mean",[3]; M (Enz) -4.24,3.7 RLU
same,"10 nM FLuc-C-HiBiT Enz, Mean",[3]; M (Enz) -4.72,3.6 RLU
same,"10 nM FLuc-C-HiBiT Enz, Mean",[3]; M (Enz) -5.19,3.8 RLU
same,"10 nM FLuc-C-HiBiT Enz, Mean",[3]; M (Enz) -5.67,4.4 RLU
same,"10 nM FLuc-C-HiBiT Enz, Mean",[3]; M (Enz) -6.15,4.9 RLU
same,"10 nM FLuc-C-HiBiT Enz, Mean",[3]; M (Enz) -6.63,6.7 RLU
same,"10 nM FLuc-C-HiBiT Enz, Mean",[3]; M (Enz) -7.10,13.5 RLU
same,"10 nM FLuc-C-HiBiT Enz, Mean",[3]; M (Enz) -7.58,42.4 RLU
same,"10 nM FLuc-C-HiBiT Enz, Mean",[3]; M (Enz) -8.06,126.0 RLU
same,"10 nM FLuc-C-HiBiT Enz, Mean",[3]; M (Enz) -8.53,177.8 RLU
same,"10 nM FLuc-C-HiBiT Enz, Mean",[3]; M (Enz) -9.01,195.6 RLU
same,"10 nM FLuc-C-HiBiT Enz, Mean",[3]; M (Enz) -9.49,204.3 RLU
same,"10 nM FLuc-C-HiBiT Enz, Mean",[3]; M (Enz) -9.97,206.3 RLU
same,"10 nM FLuc-C-HiBiT Enz, Mean",[3]; M (Enz) -10.44,203.9 RLU
same,"10 nM FLuc-C-HiBiT Enz, Mean",[3]; M (Enz) -10.92,205.8 RLU
same,"10 nM FLuc-C-HiBiT Enz, Mean",[3]; M (Enz) -11.40,202.8 RLU
